Values quoted from earlier work, collected in paper PMC7464078, “CYP3A Excipient-Based Microemulsion Prolongs the Effect of Magnolol on Ischemia Stroke Rats” (Pharmaceutics, 2020).
Like-named read-outs stand apart in the source and are kept apart here.

Tests used:
[1] = parameters: method as in PMID 21638244
CYP3A = system: CYP3A; parameters: method as in PMID 14716751, PMID 11137342; details: hepatocytes and liver microsomes

In the case of C=CCc1ccc(O)c(-c2cc(CC=C)ccc2O)c1 [Magnolol, 5,5′-diallyi-2,2′-dihydroxybiphenyl], the Water solubility (at 25 °C) is listed as 1.24 µg/mL, the “Solubility in dimethyl sulfoxide” value (ref Item No. 14233, Cyman Chemical) is listed as “approximately 16 mg/mL” and the Bioavailability [1] is listed as 4%. For the same compound, the “Inhibition of rat CYP1A2” value (rat CYP1A2; in vitro) was “relatively strong inhibitors”, the “Inhibition of rat CYP2E1” value (rat CYP2E1; in vitro) was “relatively strong inhibitors” and the “Inhibition of rat CYP3A” value (rat CYP3A; in vitro) was “weak inhibitors”. The “Inhibition of human CYP3A4” value (human CYP3A4; in vitro) was “weak inhibitors”.
In the case of C=CCc1ccc(O)c(-c2ccc(O)c(CC=C)c2)c1 [honokiol], the “Inhibition of rat CYP1A2” value (rat CYP1A2) is listed as “relatively strong inhibitors”, the “Inhibition of rat CYP2E1” value (rat CYP2E1) is listed as “relatively strong inhibitors” and the “Inhibition of rat CYP3A” value (rat CYP3A) is listed as “weak inhibitors”. For the same compound, the “Inhibition of human CYP3A4” value (human CYP3A4) was “weak inhibitors”.
In the case of Tween-80, the “Effect on CYP3A activity” value (CYP3A) is given as “inhibited”.
